Data taken from PMC9920413, “New Bicyclic Pyridine-Based Hybrids Linked to the 1,2,3-Triazole Unit: Synthesis via Click Reaction and Evaluation of Neurotropic Activity and Molecular Docking” (Molecules, 2023).
Values joined by “and” are separate entries in the source; they are usually repeats but may differ in a detail not shown here. Equal values may be shown once.

Assays:
[1] = test system: pentylenetetrazole (PTZ)-induced convulsions; test: Antagonism to pentylenetetrazole (PTZ) convulsions; type: in vivo; details: for ED50: Mus musculus, read-out: ED50 (by PTZ antagonism); for ED50 / ED50 (by PTZ antagonism): mice, i.p. 45 min before PTZ 90 mg/kg s.c., confidence limits in brackets, p = 0.05; for TI: therapeutic index TI = LD50/ED50
Procedure: (§1) The study of the anticonvulsant activity of hybrids 7a–u was assessed by evaluating the antagonism to pentylenetetrazole (PTZ), thiosemicarbazide convulsive seizures, and maximal electroshock-induced seizures (MES). The PTZ-induced test is considered an experimental model for the clonic component of epilepsy seizures and the prognostic anxiolytic activity of the compounds. PTZ is a common convulsive agent used in animal models to investigate the mechanisms of seizures. The model of thiosemicarbazide (TSC) seizures (affecting the exchange of GABA) causes clonic seizures similar to pentylenetetrazole ones. The MES test is used as an animal model for the generalization of tonic seizures in epilepsy. The neurotoxicity and side effects of the compounds (movement coordination disorder, myorelaxation, and ataxia) were also studied on mice with the “rotating rod”[29] test.
The anticonvulsant effect of the newly synthesized compounds was investigated by tests comprising pentylenetetrazole, thiosemicarbazide convulsions, and maximal electroshock (MES). Outbred mice (weight 18–22 g) were used for the study. […] Each animal is placed into an individual plastic cage for observation lasting 1 h. Seizures and clonic convulsions were recorded. […] The control animals were administered as an emulsifier. Every dose of each test compound was studied in six animals.
(§2) Adverse neurotoxic (muscle relaxant) effects of compounds were studied at doses of 50 to 500 mg/kg when administered intraperitoneally, as well as reference drugs in effect at anticonvulsant doses. Myorelaxation was investigated with the test of a “rotating rod” in mice. To this end, mice were planted on a metal rod with a corrugated rubber coating, which rotated at a speed of 5 revolutions per minute. The number of animals that cnot stay on it for 2 min was determined. To determine the ED50, neurotoxic TD50, and LD50, the statistical method of penetration by Litchfield and Wilcoxon was used.

[2] = Rotating rod test (neurotoxicity, myorelaxation); type: in vivo; details: outbred, mouse, in vivo, ip, mice, myorelaxation in 50% of animals
Procedure: as §1, §2

in vivo = details: outbred, mouse, in vivo; mice, dead animals after 24 h
Procedure: as §2

[3] = test system: thiosemicarbazide (TSC)-induced convulsions; test: Thiosemicarbazide (TSC) seizures; type: in vivo, mice; details: mice; for response vs control in vivo at 100 mg/kg: Mus musculus, ip, read-out: Latency of Convulsions, Induced by TSC, I (index of latent period of TSC seizures); for response vs control in vivo at 100 mg/kg / Latency of Convulsions, Induced by TSC, I (index of latent period of TSC seizures): compound 100 mg/kg i.p., relative to control = 1.0; for Latency of Convulsions, Induced by TSC, M ± M: compound 100 mg/kg i.p. 45 min before TSC 18 mg/kg s.c.
Procedure: as §1
Thiosemicarbazide, an antimetabolite of GABA inhibitor (glutamic acid decarboxylase) in the brain, is administered subcutaneously to mice at a dose of 18 mg/kg as a 0.5% solution, which causes clonic convulsions in animals. Anti-thiosemicarbazide activity was evaluated based on the latency time of the onset of seizures. Compounds were administered intraperitoneally at doses of 100 mg/kg in suspension with carboxymethylcellulose and Tween-80 45 min before administration of thiosemicarbazide.

rats [4] = test: Open field test; type: in vivo; details: 50 mg/kg i.p.; for Cells Examination, amount (absolute data during 5 min): control 2.4 ± 0.67; for Vertical Displacement, amount (absolute data during 5 min): control 7.0 ± 2.14; for Horizontal Displacement, amount (absolute data during 5 min): control 21.6 ± 2.25
Procedure: Open field test. The research-motor behavior of rats was studied on a modified “open field” model. For this purpose, an installation was used, the bottom of which is divided into squares with holes (cells). Experiments were performed in the daytime with natural light. Within 5 min of the experiment, the indicators of sedative and activating behavior were determined, namely the number of horizontal movements, standing on the hind legs (vertical movements), and sniffing of the cells. The number of animals on this model was eight for each compound, control, and reference drug.

mouse = test: Elevated plus maze (EPM) test; type: in vivo; details: 50 mg/kg i.p., 5 min; for Number of Entries into the Closed Arms: control 9.4 ± 1.6; for Time Spent in the Center: control 28.2 ± 3.12; for Time Spent in Closed Arms: control 269.2 ± 10.4
Description: Elevated plus maze—EPM test. Anti-anxiety and sedative effects were studied on mouse a model of the “elevated plus maze”. The labyrinth is a cruciform machine raised above the floor, with a pair of open and closed sleeves opposed to each other. Normal animals prefer to spend most of their time in the closed (dark) sleeves of the labyrinth. The anxiolytic effect of the compounds was estimated by the increase in the number of entries into open (light) sleeves and the time spent in them without increasing the total motor activity. This records the time spent in the closed sleeve and the number of attempts to enter the installation center. In the above model, the test compounds and the reference drug were injected intraperitoneally before the experiments. The control animals were administered as an emulsifier. Results were processed statistically (p < 0.05).

rats [5] = test: Electroshock retrograde amnesia, conditioned response of passive avoidance (CRPA); type: in vivo; details: 50 mg/kg, study for 5 min; for The Time Spent in the Light Chamber during the Training of the CRPA, First Day: control 280.0 ± 7.5; for The Time Spent in the Light Chamber When Playing CRPA + MESH after 24 h, Second Day: control 281.0 ± 6.1
Procedure: Test for learning and memory. The antiamnesic properties of the compounds were studied using an electroshock amnesia model modified by J. Bures, O. Buresova. In rats, a conditioned passive avoidance reaction (CRPA) to a dark-light setting was developed, while the training of the animals with CRPA was recorded. The residence times in the light and dark compartments were recorded for 5 min (300 s). Then, in the dark compartment, the animal received a single current shock (0.4 mA) through the electrode floor (training). To obtain amnesia, a maximum electroconvulsive seizure is induced in animals (conducting a maximum electric current of 50 Hz for 0.2 s through corneal electrodes). Conducting an electric shock immediately after training causes the erasure of the memory trace. The test for reproduction is carried out 24 h after training—after the development of CRPA. During this period, the control animals forget the training and prefer to be in the dark part of the chamber. An increase in the time spent by rats in the light compartment compared to the control on the second day indicates the presence of antiamnestic properties of the compounds.

mice [6] = test: Forced swimming test; details: 50 mg/kg, 6 min; for Total Time of Immobilization: control 42.0 ± 7.24; for Total Time of Active Swimming: control 318.0 ± 8.36;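 for all read-outs here: mice made to swim in a water-filled glass vessel under natural light, with durations of active swimming and immobility recorded across the 6 min session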
Procedure: Forced swimming test. To assess “despair and depression”, the “compelling swimming” model was used. Experimental animals were forced to swim in a glass container (height 22 cm, diameter 14 cm), filled 1/3 with water. […] The latent period of immobilization, the total duration of active swimming and immobilization are fixed at 6 min (the experiments were conducted under natural light).

mice [7] = test: Rotating rod test (neurotoxicity, myorelaxation); type: in vivo; details: i.p., myorelaxation in 50% of animals
Procedure: as §1, §2

mice [8] = test: in vivo; details: dead animals after 24 h
Procedure: as §2

Compound	ED50 [1] [mg/kg]	TI [1]	TD50 at 2 min [2] [mg/kg]	LD50 at 24 h (in vivo) [mg/kg]	response vs control in vivo at 100 mg/kg [3] [%]	Latency of Convulsions, Induced by TSC, M ± M [3] [min]	Cells Examination, amount (absolute data during 5 min) (rats [4])	Vertical Displacement, amount (absolute data during 5 min) (rats [4])	Horizontal Displacement, amount (absolute data during 5 min) (rats [4])	Time Spent in the Open Arms (mouse; control 2.6 ± 1.6) [s]	Number of Entries into the Closed Arms (mouse)	Time Spent in the Center (mouse) [s]	Time Spent in Closed Arms (mouse) [s]	The Time Spent in the Light Chamber during the Training of the CRPA, First Day (rats [5]) [s]	The Time Spent in the Light Chamber When Playing CRPA + MESH after 24 h, Second Day (rats [5]) [s]	Total Time of Immobilization (mice [6]) [s]	Total Time of Active Swimming (mice [6]) [s]	ED50 (by PTZ antagonism) [1]	TD50 (mice [7]) [mg/kg]	LD50 (mice [8])	further results
Cc1nc(N2CCN(C(=O)Cn3cc(COc4nc(-c5ccco5)c5c(c4C#N)CCCC5)nn3)CC2)c(C#N)c2c1COC(C)(C)C2 [7j, 6-(4-{[4-({[4-Cyano-1-(2-furyl)-5,6,7,8-tetrahydroisoquinolin-3-yl]oxy}methyl)-1H-1,2,3-triazol-1-yl]acetyl}piperazin-1-yl)-3,3,8-trimethyl-3,4-dihydro-1H-pyrano [3,4-c]pyridine-5-carbonitrile]	22	42.3	> 500	930	410	41.0 ± 3.95	9.8 ± 3.53	10 ± 3.39	54.6 ± 10.03	19.6 ± 3.5	5.9 ± 2.1	19.2 ± 4.15	261.2 ± 20.8	293.0 ± 7.2	120.0 ± 5.8	14.0 ± 3.37	346.0 ± 11.35				
6-{4-[(4-{[(4-Cyano-1-methyl-5,6,7,8-tetrahydroisoquinolin-3-yl)oxy]methyl}-1H-1,2,3-triazol-1-yl)acetyl]piperazin-1-yl}-3,3-dimethyl-1-propyl-3,4-dihydro-1H-pyrano [3,4-c]pyridine-5-carbonitrile [7f]		28.9				40.6 ± 1.11	3.2 ± 1.03	10.8 ± 3.67	39.2 ± 4.92	16.0 ± 2.09	3.0 ± 0.89	22.0 ± 6.32	264.0 ± 13.48			66.0 ± 4.48	296.0 ± 16.85	28 (22.2 ÷ 35.3) mg/kg	>500	810 (686 ÷ 956) mg/kg	Latency of Convulsions, Induced by TSC, I (index of latent period of TSC seizures) [3]: 4.06
Cc1nc(OCc2cn(CC(=O)N3CCN(c4nc(C)c5c(c4C#N)CC(C)(C)OC5)CC3)nn2)c(C#N)c2c1COC(C)(C)C2 [7m, 6-{4-[(4-{[(5-Cyano-3,3,8-trimethyl-3,4-dihydro-1H-pyrano [3,4-c]pyridin-6-yl)oxy]methyl}-1H-1,2,3-triazol-1-yl)acetyl]piperazin-1-yl}-3,3,8-trimethyl-3,4-dihydro-1H-pyrano [3,4-c]pyridine-5-carbonitrile]	15	54.7	> 500	820	366	36.6 ± 1.11	13.4 ± 5.56	12 ± 3.95	59.8 ± 9.58		6.4 ± 1.11	48.8 ± 5.14	175.4 ± 6.23	282.0 ± 6.8	296.0 ± 5.4	5.0 ± 1.2	355.0 ± 5.0				Time Spent in the Open Arms (mouse; control 2.6 ± 1.6, 50 mg/kg): 66.4 s and 66.4 ± 7.78 s
6-{4-[(4-{[(5-Cyano-3,3-dimethyl-8-propyl-3,4-dihydro-1H-pyrano [3,4-c]pyridin-6-yl)oxy]methyl}-1H-1,2,3-triazol-1-yl)acetyl]piperazin-1-yl}-1-ethyl-3,3-dimethyl-3,4-dihydro-1H-pyrano [3,4-c]pyridine-5-carbonitrile [7t]		25.6				43.8 ± 4.34	2.6 ± 0.79	10.6 ± 3.84	46.0 ± 7.37	23.0 ± 5.51	1.6 ± 0.67	9.0 ± 2.2	268.0 ± 5.56			62.0 ± 6.77	298.0 ± 16.64	30 (24.2 ÷ 42) mg/kg	>500	768 (640 ÷ 922) mg/kg	Latency of Convulsions, Induced by TSC, I (index of latent period of TSC seizures) [3]: 4.38
Cc1nc(N2CCN(C(=O)Cn3cc(COc4nc(C(C)C)c5c(c4C#N)CCC5)nn3)CC2)c(C#N)c2c1COC(C)(C)C2 [7a, 6-{4-[(4-{[(4-Cyano-1-isopropyl-6,7-dihydro-5H-cyclopenta[c]pyridin-3-yl)oxy]methyl}-1H-1,2,3-triazol-1-yl)acetyl]piperazin-1-yl}-3,3,8-trimethyl-3,4-dihydro-1H-pyrano [3,4-c]pyridine-5-carbonitrile]	20	44.5	> 500	890	430	43.0 ± 5.2	8.6 ± 1.89	6.8 ± 3.42	44.4 ± 10.1	15.0 ± 2.1	5.6 ± 2.1	22.4 ± 3.99	262.6 ± 14.6	286.0 ± 4.3	298.0 ± 6.9	18.6 ± 3.2	341.4 ± 6.2				
